According to patent US20100216761A1, “NOVEL AZETIDINONES USEFUL AS INHIBITORS OF ELASTASE” (priority 2007, published 2010):
Values joined by “and” are separate entries in the source; they are usually repeats but may differ in a detail not shown here. Identical values can stand only once.

Legend:
[1] = Human liver microsome stability (Assays #1-#4); type: in vitro ADME; conditions: substrate 1 μM, 37° C.; for % Left Assay 3 @ 0 min / % Left Assay 3 @ 5 min / % Left Assay 3 @ 10 min / % Left Assay 3 @ 15 min / % Left Assay 3 @ 30 min / % Left Assay 3 @ 60 min / % Left @ 30 min / half-life at 1 μM: protein 0.1 mg/mL; for % Left (+NADPH) @ 0 min / % Left (+NADPH) @ 5 min / % Left (+NADPH) @ 10 min / % Left (+NADPH) @ 15 min / % Left (+NADPH) @ 30 min / % Left (+NADPH) @ 60 min / % Left (−NADPH) @ 0 min / % Left (−NADPH) @ 60 min: Assay #4, protein 1.0 mg/mL; for % Left (−NADPH) @ 0 min / % Left (−NADPH) @ 60 min: −NADPH control; for % Left @ 30 min / half-life at 1 μM: Assay #1; for half-life at 1 μM: human, liver microsomes
Experimental: The results for Examples 1 and 3 were t112=87 and 32 minutes with 78% and 60% remaining after 30 minutes, respectively, compared to shorter half-lives and lesser amounts left for Examples 2 and 4-6 (see Note 6 for conditions).
Under similar in vitro human liver microsome preparation stability assay conditions at 37° C. for 30 or 60 minutes in a separate head-to-head experiments (Assay #2 and #3) (see Note 6 for conditions) with Examples 1 and 3 and the comparator Compound #290 from U.S. Pat. No. 5,591,737, the amounts left after the 30 minute incubation (with […] microsome protein vs 0.1 mg/mL for Assay #3) were 67, 99 and 79% and for the 60 minute incubation were 94, 73 and 77%, respectively. Similarly, in a third repeat assay (Assay #4 with—NADPH controls) (see Note 6 for conditions), 90 and 72% were remaining for Example 1 and the comparator compound, respectively. […]
Note 6: Human Liver Microsome Assay # 1-3 conditions. • Assay experiment #1: Substrate concentration=1 μM; Protein concentration=0.1 mg/mL; incubation time=30 minutes at 37° C. • Assay experiment #2: Substrate concentration=1 μM; Protein concentration 0.1 mg/mL; incubation time=30 minutes at 37° C. • Assay experiment #3: Substrate concentration=1 μM; Protein concentration=0.1 mg/mL; incubation time=60 minutes at 37° C. • Assay experiment #4: Substrate concentration=1 μM; Protein concentration=1.0 mg/mL; incubation time=60 minutes at 37° C.

CYP2C9 = target: T1, CYP2C9 (Homo sapiens, UniProt P11712); assay: CYP-P450 reversible inhibition, 2C9; type: in vitro ADME; conditions: probe fluorogenic probe (not named); human liver microsomes or recombinant P450 microsomes; fluorescent probe
T1 construct: host or cells: human liver microsomes or recombinant P450 microsomes
Experimental: (§1) This assay measured the reversible inhibition of the test compounds against three cytochrome P450 isozymes (CYP-P450 3A4, 2C9 and 2D6) in an automated screening formate. […] Cumene hydroperoxide, NADPH or NADPH regenerating systems can be used as electron donors for the P450 catalytic cycle. Control incubations containing no inhibitor or no fluorescent probe were performed to evaluate the 100% and 0% activities, respectively. The activity of P450 enzyme was evaluated in the presence of 0.137, 0.273, 0.547, 1.094, 2.188, 4.375, 8.750, 17.5, 35.0 and 70.0 μM concentrations of the test compounds. Inhibition curves were generated and IC50 values were calculated for each tested compound using standard techniques.

CYP2D6 = target: T2, CYP2D6 (Homo sapiens, UniProt P10635); assay: CYP-P450 reversible inhibition, 2D6; type: in vitro ADME; conditions: probe fluorogenic probe (not named); human liver microsomes or recombinant P450 microsomes; fluorescent probe
T2 construct: host or cells: human liver microsomes or recombinant P450 microsomes
Experimental: as §1

[2] = target: T3, Human Leukocyte Elastase (HLE) (Homo sapiens, UniProt P08246); assay: HLE time-dependent inactivation assay, PMN cell lysate source of HLE; type: biochemical; conditions: 3 nM, inhibitor 26.5 nM, substrate 1 mM
T3 construct: The PMN lysates were prepared by isolating human neutrophils from whole blood; from tissue; host or cells: human neutrophils (PMN) isolated from whole blood, lysed by sonication in PBS
T3 sequence (P08246 30-267): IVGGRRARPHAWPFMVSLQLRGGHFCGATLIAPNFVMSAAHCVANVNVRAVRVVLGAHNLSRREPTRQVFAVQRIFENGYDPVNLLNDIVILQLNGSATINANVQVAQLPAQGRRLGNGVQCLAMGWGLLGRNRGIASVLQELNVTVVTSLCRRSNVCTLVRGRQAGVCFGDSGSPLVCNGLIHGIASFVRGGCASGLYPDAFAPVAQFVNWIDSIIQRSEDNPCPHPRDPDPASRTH
Experimental: As exemplified in Table 1, the Examples 1-6 of this application were determined to be potent, mechanism-based inactivators of Human Leukocyte Elastase (HLE) in two different in vitro time-dependent incubation assays. The two assays are described at the end of this Biological Data Section in Note 1. See the literature references in Note 2 for a discussion of the mechanism for this type of beta-lactam inactivation of HLE. Two sources of enzyme were used; either purified elastase or crude extracts of human polymorphonuclear leukocytes (PMN) containing elastase activity. […] For the compound of Example 1, the results were 638,000 M^−1 sec^−1 (average of n=3) and 809,000 M^−1 sec^−1 (n=4), respectively, and for Example 3, 804,000 M^−1 sec^−1 (average of n=4) and 952,000 M^−1 sec^−1 (n=5). […] Note that in this assay, head-to-head comparisons are particularly valuable.
Note 1: Enzyme Assays for the Inhibition of Human Polymorphonuclear Leukocyte Elastase Via Hydrolysis of N-Methyoxysuccinyl-alanyl-alanyl-prolylalanine-p-nitroanilide Reagent.
Prepare substrate by first dissolving in DMSO to 30 mg/ml (50 mM). Further dilute the substrate to 10 mM and add 25 μl to a final volume of 250 μl for a final concentration of 1 mM in the assay.
Prepare the enzyme in TES Buffer (0.045M TES (N-tris[hydroxymethyl]methyl-2-mino-ethanesulfonic acid), 0.45 M NaCl, pH 7.5.). Two sources of enzyme were used; either crude extracts of human polymorphonuclear leukocytes (PMN) containing elastase activity or purified elastase. The PMN lysates were prepared by isolating human neutrophils from whole blood after dextran sedimentation, ficoll density separation and red blood cell lysis. The neutrophils were lysed in PBS with sonciation and the concentration of active enzyme was determined by utilizing a standard curve of purified enzyme. For the purified elastase, the enzyme was resuspended at 10 mg/ml (˜340 μM) in 0.02M NaOAc, 50% glycerol. For both the PMN lysate and purified enzyme, a further dilution of enzyme was made to 30 nM and 25 μl was added to a final volume of 250 μl. The final concentration of enzyme in the assay was 3 nM.
The inhibitors to be tested were dissolved in DMSO at 10 mM. Directly before use, the inhibitors were further diluted into TES Buffer to 265 nM and […] was added to a final volume of 250 μl. The final concentration of inhibitor in the assay was 26.5 nM.
In a 96-well plate (flat bottom, polystyrene) 175 μl TES Buffer, 25 μl substrate, 25 μl inhibitor and 25 μl enzyme were added. After thoroughly mixing, the plate was then read in a spectrophotometer at 410 nm for 30 minutes counting every 10 seconds. Results were expressed as Kinact/Ki which is the second order rate constant in per mole per second for inactivation of the enzyme.

T1 sequence (P11712 whole entry): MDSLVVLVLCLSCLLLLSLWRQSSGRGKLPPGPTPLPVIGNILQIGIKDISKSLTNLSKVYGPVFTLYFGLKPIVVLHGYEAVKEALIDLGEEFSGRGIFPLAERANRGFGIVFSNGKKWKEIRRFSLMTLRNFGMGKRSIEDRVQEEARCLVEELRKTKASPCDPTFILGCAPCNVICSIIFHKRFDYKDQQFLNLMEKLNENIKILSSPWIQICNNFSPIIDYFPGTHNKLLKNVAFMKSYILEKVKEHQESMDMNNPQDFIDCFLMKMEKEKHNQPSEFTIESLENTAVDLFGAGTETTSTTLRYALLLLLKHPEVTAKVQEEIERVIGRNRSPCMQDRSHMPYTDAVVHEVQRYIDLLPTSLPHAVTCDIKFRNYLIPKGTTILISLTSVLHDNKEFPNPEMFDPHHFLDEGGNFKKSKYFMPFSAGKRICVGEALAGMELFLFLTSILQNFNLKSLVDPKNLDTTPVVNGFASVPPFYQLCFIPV
T2 sequence (P10635 whole entry): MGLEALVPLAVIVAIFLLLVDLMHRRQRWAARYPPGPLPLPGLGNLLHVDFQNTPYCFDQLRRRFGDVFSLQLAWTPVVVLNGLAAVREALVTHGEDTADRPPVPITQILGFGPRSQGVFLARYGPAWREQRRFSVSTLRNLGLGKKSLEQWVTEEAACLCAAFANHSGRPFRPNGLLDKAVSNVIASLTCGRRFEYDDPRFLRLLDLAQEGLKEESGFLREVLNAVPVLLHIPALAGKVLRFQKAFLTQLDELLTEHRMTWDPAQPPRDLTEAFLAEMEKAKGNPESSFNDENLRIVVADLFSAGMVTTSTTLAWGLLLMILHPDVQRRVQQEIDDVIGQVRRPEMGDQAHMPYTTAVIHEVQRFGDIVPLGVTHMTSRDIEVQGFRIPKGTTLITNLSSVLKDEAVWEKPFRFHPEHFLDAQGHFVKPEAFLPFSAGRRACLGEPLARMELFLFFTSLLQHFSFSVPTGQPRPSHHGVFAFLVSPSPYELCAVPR

Structure (SMILES) | % Left Assay 2 @ 0 min [1] [%] | % Left Assay 2 @ 2.5 min [1] [%] | % Left Assay 2 @ 5 min [1] [%] | % Left Assay 2 @ 10 min [1] [%] | % Left Assay 2 @ 15 min [1] [%] | % Left Assay 2 @ 30 min [1] | % Left Assay 3 @ 0 min [1] [%] | % Left Assay 3 @ 5 min [1] [%] | % Left Assay 3 @ 10 min [1] [%] | % Left Assay 3 @ 15 min [1] [%] | % Left Assay 3 @ 30 min [1] [%] | % Left Assay 3 @ 60 min [1] | % Left (+NADPH) @ 0 min [1] [%] | % Left (+NADPH) @ 5 min [1] [%] | % Left (+NADPH) @ 10 min [1] [%] | % Left (+NADPH) @ 15 min [1] [%] | % Left (+NADPH) @ 30 min [1] [%] | % Left (+NADPH) @ 60 min [1] | % Left (−NADPH) @ 0 min [1] | % Left (−NADPH) @ 60 min [1] | further results
CCC[C@@H](NC(=O)N1C(=O)C(CC)(CC)[C@@H]1Oc1ccc(C(=O)N(C)CCN(C)C)cc1)c1ccc(OC)cc1 [Compound #290, reference compound] | 100 | 99 | 95 | 89 | 82 | 79% and 79 +/− 6% | 100 | 90 | 88 | 85 | 83 | 77% and 77 +/− 4% | 100 | 92 | 89 | 84 | 78 | 72% and 72 +/− 0% | 89 +/− 5% | 83 +/− 1% | IC50 (CYP2C9): > 8 µM; IC50 (CYP2D6): > 8 µM
CCC[C@@H](NC(=O)N1C(=O)C(CC)(CC)[C@@H]1Oc1ccc(C(=O)N(CC)CCN(C)C)cc1)c1ccc(OC(F)(F)F)cc1 [Example 1, 2-(S)-[4-(((2-(Dimethylamino)ethyl)ethylamino)carbonyl)phenoxy]-3,3-diethyl-N-[1-(R)-(4-(trifluoromethoxy)phenyl)butyl]-4-oxo-1-azetidinecarboxamide] | 100 | 78 | 78 | 73 | 70 | 67% and 67 +/− 2% | 100 | 101 | 79 | 90 | 100 | 94% and 94 +/− 10% | 100 | 104 | 99 | 96 | 91 | 90% and 90 +/− 4% | 87 +/− 21% | 99 +/− 2% | % Left @ 30 min [1]: 78%; half-life at 1 μM [1]: 87 min; IC50 (CYP2C9): > 8 µM; kinact/KI [2]: 809000 M⁻¹ s⁻¹; IC50 (CYP2D6): > 8 µM
CCC[C@@H](NC(=O)N1C(=O)C(CC)(CC)[C@@H]1Oc1ccc(C(=O)N(CC)CCN(C)C)cc1)c1ccc(C(F)(F)F)cc1 [Example 3, 2-(S)-[4-(((2-(Dimethylamino)ethyl)ethylamino)carbonyl)phenoxy]-3,3-diethyl-N-[1-(R)-(4-(trifluoromethyl)phenyl)butyl]-4-oxo-1-azetidinecarboxamide] | 100 | 107 | 85 | 82 | 82 | 99% and 79 +/− 7% | 100 | 86 | 81 | 75 | 75 | 73% and 73 +/− 0% | – | – | – | – | – | – | – | – | % Left @ 30 min [1]: 60%; half-life at 1 μM [1]: 32 min; kinact/KI [2]: 952000 M⁻¹ s⁻¹
